Measurements published in patent US9688661B2, “Substituted pyrroles active as kinases inhibitors” (NERVIANO MEDICAL SCIENCES S.R.L., priority 2012, dated 2017).

Legend:
JAK1 kinase domain = JAK1 kinase domain (Homo sapiens (Human), UniProt P23458); experiment: Biochemical assay for inhibitors of JAK kinase activity, JAK1; details: preactivated JAK1 kinase domain 2.5 nM, 100 μM ATP
Method: (§1) Specific JAK2, JAK1 or JAK3 peptide substrates are trans-phosphorylated by JAK kinases in the presence of ATP traced with 33P-γ-ATP. At the end of the phosphorylation reaction, the unreacted ATP, cold and radioactive, is captured by an excess of dowex ion exchange resin that eventually settles by gravity to the bottom of the reaction plate. The supernatant is subsequently withdrawn and transferred into a counting plate that is then evaluated by β-counting.
(§2) 500 g of wet resin (SIGMA, custom prepared resin DOWEX 1×8 200-400 mesh, 2.5 Kg) are weighed out and diluted 2 to 1 in 150 mM sodium formate, pH 3.00. The resin is allowed to settle down overnight and then the supernatant is discarded. After three washes as above over a couple of days, the resin is allowed to settle and two volumes (with respect to the resin volume) of 150 mM sodium formate buffer are added.
(§3) Kinase buffer was composed of 50 mM HEPES pH 7.5 containing 10 mM MgCl2, 2.5 mM DTT, 10 μM Na3VO4 and 0.2 mg/mL BSA.
Assays were performed with the JAK1 kinase domain (residues 861-1152 of the 1154 amino acid long full-length sequence, accession number P23458 of UniProtKB/Swiss-Prot database).
The JAK1 kinase domain was preactivated with ATP for 1 h at 28° C. in order to obtain a linear kinetic.
(§4) The peptidic substrate was purchased from American Peptide Company (Sunnyvale, Calif.).
(§5) Data are analyzed by Symix Assay Explorer software (Symix Technologies Inc.) that provides sigmoidal fitting algorithm of the 8 points dilutions curves for IC50 determination.

JAK2 kinase domain = JAK2 kinase domain (Homo sapiens (Human), UniProt O60674); experiment: Biochemical assay for inhibitors of JAK kinase activity, JAK2; details: JAK2 kinase domain 1 nM, 60 μM ATP
Method: as §1, §2, §3, §4, §5

[1] = system: JAK2 dependent human megakaryoblastic leukemia cell line SET-2; experiment: Cell proliferation assay, SET-2; type: cell-based; details: SET-2 cells, 72 hours, CellTiter-Glo
[2] = system: JAK2 independent human chronic myelogenous leukaemia cell line K562; experiment: Cell proliferation assay, K562; type: cell-based; details: K562 cells, 72 hours, CellTiter-Glo, read-out: IC50 K-562
TYK2 kinase domain = TYK2 kinase domain (Homo sapiens (Human), UniProt P29597); experiment: Biochemical assay for inhibitors of JAK kinase activity, TYK2; details: TYK2 kinase domain 3 nM, 31 μM ATP
Method: as §1, §2, §3, §4, §5

Chain of JAK2 kinase domain (O60674 849-1124): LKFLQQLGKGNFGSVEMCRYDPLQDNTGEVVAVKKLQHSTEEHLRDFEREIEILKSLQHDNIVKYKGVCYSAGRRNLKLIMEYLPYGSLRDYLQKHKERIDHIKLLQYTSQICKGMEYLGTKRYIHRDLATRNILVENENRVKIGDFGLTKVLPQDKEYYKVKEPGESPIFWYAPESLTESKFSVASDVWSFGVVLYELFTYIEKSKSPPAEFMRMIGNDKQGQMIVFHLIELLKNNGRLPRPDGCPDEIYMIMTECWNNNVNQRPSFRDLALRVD
Chain of TYK2 kinase domain (P29597 833-1187): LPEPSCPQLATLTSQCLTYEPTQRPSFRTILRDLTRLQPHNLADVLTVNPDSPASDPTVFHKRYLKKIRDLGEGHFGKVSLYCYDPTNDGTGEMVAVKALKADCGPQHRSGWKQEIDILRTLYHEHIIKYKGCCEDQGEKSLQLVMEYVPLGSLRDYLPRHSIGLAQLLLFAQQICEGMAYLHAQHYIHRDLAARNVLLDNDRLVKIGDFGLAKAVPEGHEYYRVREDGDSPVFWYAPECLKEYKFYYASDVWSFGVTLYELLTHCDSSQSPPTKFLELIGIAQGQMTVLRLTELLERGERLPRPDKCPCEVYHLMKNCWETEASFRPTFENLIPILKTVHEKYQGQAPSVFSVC
Chain of JAK1 kinase domain (P23458 861-1152): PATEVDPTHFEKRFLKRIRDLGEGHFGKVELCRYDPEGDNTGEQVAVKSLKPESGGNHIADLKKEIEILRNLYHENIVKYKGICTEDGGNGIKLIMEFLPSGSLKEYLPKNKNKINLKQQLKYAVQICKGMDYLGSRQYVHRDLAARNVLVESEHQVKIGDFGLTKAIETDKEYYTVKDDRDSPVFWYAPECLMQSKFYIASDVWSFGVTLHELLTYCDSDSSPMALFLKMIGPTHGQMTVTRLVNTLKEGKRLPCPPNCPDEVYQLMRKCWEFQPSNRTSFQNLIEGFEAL

| Structure (SMILES) | IC50 (JAK1 kinase domain) | IC50 (JAK2 kinase domain) | IC50 [1] | IC50 [2] | IC50 (TYK2 kinase domain) |
| --- | --- | --- | --- | --- | --- |
| CCc1ccc(Cl)cc1-c1[nH]c(-c2cc(N)ncn2)cc1C#N [compd 9, 5-(6-Aminopyrimidin-4-yl)-2-(5-chloro-2-ethylphenyl)-1H-pyrrole-3-carbonitrile] | 141 nM | 23 nM | 1270 nM | 7230 nM | – |
| CCc1ccc(Cl)cc1-n1cc(-c2cc(N)ncn2)cc1C#N [compd 47, 4-(6-Aminopyrimidin-4-yl)-1-(5-chloro-2-ethylphenyl)-1H-pyrrole-2-carbonitrile] | 869 nM | 66 nM | 3070 nM | > 10000 nM | – |
| Cc1ccc(Cl)cc1-n1cc(-c2ncnc3[nH]ccc23)cc1C#N [compd 63, 1-(5-Chloro-2-methylphenyl)-4-(7H-pyrrolo[2,3-d]pyrimidin-4-yl)-1H-pyrrole-2-carbonitrile] | 15 nM | 4 nM | 1380 nM | 1890 nM | 13 nM |
| N#Cc1cc(-c2ncnc3[nH]ccc23)cn1-c1cc(C(F)(F)F)ccc1Cl [compd 72, 1-[2-Chloro-5-(trifluoromethyl)phenyl]-4-(7H-pyrrolo[2,3-d]pyrimidin-4-yl)-1H-pyrrole-2-carbonitrile] | 17 nM | 7 nM | 510 nM | 6610 nM | 38 nM |
| Cc1ccc(Cl)cc1-c1cc(-c2ncnc3[nH]ccc23)[nH]c1C(N)=O [compd 123, 3-(5-Chloro-2-methylphenyl)-5-(7H-pyrrolo[2,3-d]pyrimidin-4-yl)-1H-pyrrole-2-carboxamide] | 33 nM | 5 nM | 460 nM | 3760 nM | 23 nM |
| CNC(=O)c1[nH]c(-c2ncnc3[nH]ccc23)cc1-c1cc(Cl)ccc1C [compd 129, 3-(5-Chloro-2-methylphenyl)-N-methyl-5-(7H-pyrrolo[2,3-d]pyrimidin-4-yl)-1H-pyrrole-2-carboxamide] | 38 nM | 9 nM | 690 nM | > 10000 nM | 70 nM |
| CCc1ccc(C(F)(F)F)cc1-c1cc(-c2ncnc3[nH]ccc23)[nH]c1C(=O)NC [compd 131, 3-[2-Ethyl-5-(trifluoromethyl)phenyl]-N-methyl-5-(7H-pyrrolo[2,3-d]pyrimidin-4-yl)-1H-pyrrole-2-carboxamide] | 25 nM | 9 nM | 480 nM | 2800 nM | 87 nM |
| Cc1ccc(Cl)cc1-c1[nH]c(-c2cc(N)ncn2)cc1C(N)=O [compd 189, 5-(6-Aminopyrimidin-4-yl)-2-(5-chloro-2-methylphenyl)-1H-pyrrole-3-carboxamide] | 139 nM | 19 nM | 890 nM | > 10000 nM | – |
| CNc1cc(-c2cc(C(N)=O)c(-c3cc(Cl)ccc3C)[nH]2)ncn1 [compd 190, 2-(5-Chloro-2-methylphenyl)-5-[6-(methylamino)pyrimidin-4-yl]-1H-pyrrole-3-carboxamide] | 52 nM | 22 nM | 750 nM | > 10000 nM | 94 nM |
| Cc1ccc(Cl)cc1-c1[nH]c(-c2ncnc3[nH]ccc23)cc1C(N)=O [compd 191, 2-(5-Chloro-2-methylphenyl)-5-(7H-pyrrolo[2,3-d]pyrimidin-4-yl)-1H-pyrrole-3-carboxamide] | 20 nM | 1 nM | 690 nM | > 10000 nM | 7 nM |
| Cc1ccc(Cl)cc1-c1[nH]c(-c2ccnc3[nH]ccc23)cc1C(N)=O [compd 192, 2-(5-Chloro-2-methylphenyl)-5-(1H-pyrrolo[2,3-b]pyridin-4-yl)-1H-pyrrole-3-carboxamide] | 111 nM | 13 nM | 860 nM | > 10000 nM | 51 nM |
| NC(=O)c1cc(-c2cc(N)ncn2)[nH]c1-c1cc(C(F)(F)F)ccc1Cl [compd 204, 5-(6-Aminopyrimidin-4-yl)-2-[2-chloro-5-(trifluoromethyl)phenyl]-1H-pyrrole-3-carboxamide] | 167 nM | 12 nM | 450 nM | > 10000 nM | – |
| CNc1cc(-c2cc(C(N)=O)c(-c3cc(C(F)(F)F)ccc3Cl)[nH]2)ncn1 [compd 205, 2-[2-Chloro-5-(trifluoromethyl)phenyl]-5-[6-(methylamino)pyrimidin-4-yl]-1H-pyrrole-3-carboxamide] | 104 nM | 19 nM | 650 nM | > 10000 nM | – |
| NC(=O)c1cc(-c2ncnc3[nH]ccc23)[nH]c1-c1cc(C(F)(F)F)ccc1Cl [compd 206, 2-[2-Chloro-5-(trifluoromethyl)phenyl]-5-(7H-pyrrolo[2,3-d]pyrimidin-4-yl)-1H-pyrrole-3-carboxamide] | 140 nM | 19 nM | 700 nM | > 10000 nM | – |
| Cc1ccc(C(F)(F)F)cc1-c1[nH]c(-c2cc(N)ncn2)cc1C(N)=O [compd 211, 5-(6-Aminopyrimidin-4-yl)-2-[2-methyl-5-(trifluoromethyl)phenyl]-1H-pyrrole-3-carboxamide] | 108 nM | 11 nM | 590 nM | > 10000 nM | – |
| CNc1cc(-c2cc(C(N)=O)c(-c3cc(C(F)(F)F)ccc3C)[nH]2)ncn1 [compd 212, 5-[6-(Methylamino)pyrimidin-4-yl]-2-[2-methyl-5-(trifluoromethyl)phenyl]-1H-pyrrole-3-carboxamide] | 48 nM | 21 nM | 460 nM | > 10000 nM | – |
| Cc1ccc(C(F)(F)F)cc1-c1[nH]c(-c2ncnc3[nH]ccc23)cc1C(N)=O [compd 213, 2-[2-Methyl-5-(trifluoromethyl)phenyl]-5-(7H-pyrrolo[2,3-d]pyrimidin-4-yl)-1H-pyrrole-3-carboxamide] | 27 nM | 8 nM | 290 nM | > 10000 nM | 73 nM |
| CCc1ccc(C(F)(F)F)cc1-c1[nH]c(-c2cc(N)ncn2)cc1C(N)=O [compd 218, 5-(6-Aminopyrimidin-4-yl)-2-[2-ethyl-5-(trifluoromethyl)phenyl]-1H-pyrrole-3-carboxamide] | 33 nM | 4 nM | 260 nM | 6240 nM | 54 nM |
| Cc1ccc(Cl)cc1-n1cc(-c2cc(N)ncn2)cc1C(N)=O [compd 227, 4-(6-Aminopyrimidin-4-yl)-1-(5-chloro-2-methylphenyl)-1H-pyrrole-2-carboxamide] | 595 nM | 73 nM | 2360 nM | > 10000 nM | – |
| Cc1ccc(Cl)cc1-n1cc(-c2ncnc3[nH]ncc23)cc1C(N)=O [compd 232, 1-(5-Chloro-2-methylphenyl)-4-(1H-pyrazolo[3,4-d]pyrimidin-4-yl)-1H-pyrrole-2-carboxamide] | 315 nM | 33 nM | 1680 nM | > 10000 nM | 69 nM |
| CCc1ccc(Cl)cc1-n1cc(-c2cc(N)ncn2)cc1C(N)=O [compd 235, 4-(6-Aminopyrimidin-4-yl)-1-(5-chloro-2-ethylphenyl)-1H-pyrrole-2-carboxamide] | 79 nM | – | – | – | 32 nM |
| NC(=O)c1cc(-c2cc(N)ncn2)cn1-c1cc(C(F)(F)F)ccc1Cl [compd 242, 4-(6-Aminopyrimidin-4-yl)-1-[2-chloro-5-(trifluoromethyl)phenyl]-1H-pyrrole-2-carboxamide] | 1080 nM | 71 nM | 1570 nM | > 10000 nM | – |
| NC(=O)c1cc(-c2ncnc3[nH]cnc23)cn1-c1cc(C(F)(F)F)ccc1Cl [compd 245, 1-[2-Chloro-5-(trifluoromethyl)phenyl]-4-(9H-purin-6-yl)-1H-pyrrole-2-carboxamide] | 386 nM | 27 nM | 1230 nM | > 10000 nM | – |
| NC(=O)c1cc(-c2ncnn3cccc23)cn1-c1cc(C(F)(F)F)ccc1Cl [compd 247, 1-[2-Chloro-5-(trifluoromethyl)phenyl]-4-(pyrrolo[2,1-f][1,2,4]triazin-4-yl)-1H-pyrrole-2-carboxamide] | 991 nM | – | – | – | – |
| CCc1ccc(Cl)cc1-c1[nH]c(-c2ncnc3[nH]ccc23)cc1C(=O)NC [compd 303, 2-(5-Chloro-2-ethylphenyl)-N-methyl-5-(7H-pyrrolo[2,3-d]pyrimidin-4-yl)-1H-pyrrole-3-carboxamide] | – | 1 nM | 140 nM | 3760 nM | 12 nM |
| CNC(=O)c1cc(-c2ncnc3[nH]ccc23)[nH]c1-c1cc(C(F)(F)F)ccc1C [compd 318, 2-[2-Methyl-5-(trifluoromethyl)phenyl]-N-methyl-5-(7H-pyrrolo[2,3-d]pyrimidin-4-yl)-1H-pyrrole-3-carboxamide] | 63 nM | 25 nM | 350 nM | > 10000 nM | – |
